# From patent publication US8716276B2, “Thiophenyl and pyrrolyl azepines as serotonin 5-HT2C receptor ligands and uses thereof” (Athersys, Inc., priority 2006, dated 2014)
# Biological target: T1, human 5HT2c receptor (VNV Isoform) (Homo sapiens, UniProt P28335, I156V/I160V)
# T1 construct: expressed in transfected cells; host or cells: HEK 293 EBNA
# T1 sequence (P28335 33-458 I156V/I160V): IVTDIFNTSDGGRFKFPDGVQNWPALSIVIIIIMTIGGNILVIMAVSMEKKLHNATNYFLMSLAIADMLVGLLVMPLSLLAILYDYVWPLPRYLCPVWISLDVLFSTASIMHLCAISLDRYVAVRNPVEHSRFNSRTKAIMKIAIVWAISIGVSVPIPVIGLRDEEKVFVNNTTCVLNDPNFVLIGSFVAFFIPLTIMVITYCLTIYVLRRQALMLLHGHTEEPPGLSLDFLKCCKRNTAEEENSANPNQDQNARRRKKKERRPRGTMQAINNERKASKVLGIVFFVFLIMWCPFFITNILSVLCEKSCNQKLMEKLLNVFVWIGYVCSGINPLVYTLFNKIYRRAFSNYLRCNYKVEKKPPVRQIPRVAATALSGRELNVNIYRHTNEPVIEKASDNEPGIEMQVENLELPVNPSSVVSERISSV
# Assay: Calcium mobilization (FLIPR) 5HT2c receptor agonist assay
# Assay type: cell-based
# Conditions: HEK 293 EBNA cells expressing human 5HT2c receptor (VNV isoform), agonist-induced calcium fluorescence, read-out: 5-HT2c EC50 (hVNV)
# Procedure: The following procedure was utilized to evaluate representative compounds of the present invention as 5HT2c, receptor agonists.
# 5HT was utilized as a positive control. Ligand-induced calcium release and consequent fluorescence was measured on a Fluorometric Imaging Plate Reader (FLIPR, Molecular Device, CA).
# All data were analyzed by nonlinear least square curve fitting using Prism 4.0 software. Agonist stimulation of calcium-induced fluorescence in FLIPR was fitted to sigmoidal dose response using equation Y=Bottom+(Top−Bottom)/(1+10^((Log EC50−X))), where X is the logarithm of concentration of compounds and Y is the fluorescent response.
row,SMILES,EC50
1,"CC(c1cc2c(s1)CCNCC2)C(F)(F)F (racemic) [Example 4, (R,S)-2-(2,2,2-Trifluoro-1-methyl-ethyl)-5,6,7,8-tetrahydro-4H-thieno[2,3-d]azepine]",< 10 nM
2,"FC(F)(F)C1CCc2c1sc1c2CCNCC1 (racemic) [Example 6, (R,S)-1-Trifluoromethyl-1,2,3,4,5,6,7,8-octahydro-9-thia-6-aza-cyclopenta[a]azulene]",< 10 nM
3,"CC1(C)CC(C(F)(F)F)c2sc3c(c21)CCNCC3 (racemic) [Example 7, (R,S)-3,3-Dimethyl-1-trifluoromethyl-1,2,3,4,5,6,7,8-octahydro-9-thia-6-aza-cyclopenta[a]azulene]",< 1000 nM
4,"CC1CNCCc2sc(C(=O)C(C)(C)C)cc21 (racemic) [Example 11, (R,S)-2,2-Dimethyl-1-(4-methyl-5,6,7,8-tetrahydro-4H-thieno[2,3-d]azepin-2-yl)-propan-1-one]",< 100 nM
5,"FC(F)(F)Cc1sc2c3c1CCC3CNCC2 (racemic) [Example 13, (R,S)-2-(2,2,2-Trifluoro-ethyl)-4,4a,5,6,7,8-hexahydro-3H-1-thia-6-aza-cyclopenta[cd]azulene]",< 100 nM
6,"CC1(C)CC2CNCCc3sc(Br)c1c32 (racemic) [Example 14, (R,S)-2-Bromo-3,3-dimethyl-4,4a,5,6,7,8-hexahydro-3H-1-thia-6-aza-cyclopenta[cd]azulene]",< 1000 nM
7,"CC1Cc2cc(Br)sc2CCN1 (racemic) [Example 15, (R,S)-2-Bromo-5-methyl-5,6,7,8-tetrahydro-4H-thieno[2,3-d]azepine]",< 1000 nM
8,"CC1CNCCc2sc3c(c21)C(C)(C)CC3C(F)(F)F (single isomer, unassigned) [17 Diastereomer 1]",< 100 nM
9,"CC1CNCCc2sc3c(c21)C(C)(C)CC3C(F)(F)F (single isomer, unassigned) [17 Diastereomer 2]",< 1000 nM
10,"CC1CNCCc2sc(CC(F)(F)F)c(Br)c21 (single isomer, unassigned) [Example 9, 3-Bromo-4-methyl-2-(2,2,2-trifluoro-ethyl)-5,6,7,8-tetrahydro-4H-thieno[2,3-d]azepine]",< 100 nM
11,"CCS(=O)(=O)c1sc2c(c1C)C(C)CNCC2 (single isomer, unassigned) [Example 10, 2-Ethanesulfonyl-3,4-dimethyl-5,6,7,8-tetrahydro-4H-thieno[2,3-d]azepine]",< 100 nM
12,"CC1CNCCc2sc(C(=O)C(C)(C)C)c(Br)c21 (single isomer, unassigned) [Example 12, 1-(3-Bromo-4-methyl-5,6,7,8-tetrahydro-4H-thieno[2,3-d]azepin-2-yl)-2,2-dimethyl-propan-1-one]",< 100 nM
13,"CC1CNCCc2sc3c(c21)CCC3C(F)(F)F (single isomer, unassigned) [Example 16, 4-Methyl-1-trifluoromethyl-1,2,3,4,5,6,7,8-octahydro-9-thia-6-aza-cyclopenta[a]azulene]",< 100 nM
14,"Cc1c(C(=O)C(C)(C)C)sc2c1CCNCC2 [Example 1, 2,2-Dimethyl-1-(3-methyl-5,6,7,8-tetrahydro-4H-thieno[2,3-d]azepin-2-yl)-propan-1-one]",< 100 nM
15,"FC(F)(F)Cc1sc2c(c1Br)CCNCC2 [Example 2, 3-Bromo-2-(2,2,2-trifluoro-ethyl)-5,6,7,8-tetrahydro-4H-thieno[2,3-d]azepine]",< 10 nM
16,"O=S(=O)(c1ccccc1)c1cc2c(s1)CCNCC2 [Example 3, 2-Benzenesulfonyl-5,6,7,8-tetrahydro-4H-thieno[2,3-d]azepine]",< 10 nM
17,"CCS(=O)(=O)c1cc2c(s1)CCNCC2 [Example 5, 2-Ethanesulfonyl-5,6,7,8-tetrahydro-4H-thieno[2,3-d]azepine]",< 10 nM
18,"CC(C)(c1cc2c(s1)CCNCC2)C(F)(F)F [Example 8, 2-(2,2,2-Trifluoro-1,1-dimethyl-ethyl)-5,6,7,8-tetrahydro-4H-thieno[2,3-d]azepine]",< 100 nM
19,"CC(C)(C)C(=O)c1cc2c(s1)CCNCC2 [Example 18, 2,2-Dimethyl-1-(5,6,7,8-tetrahydro-4H-thieno[2,3-d]azepin-2-yl)-propan-1-one]",< 10 nM
20,"CC(C)(C)C(=O)c1sc2c(c1Cl)CCNCC2 [Example 19, 1-(3-Chloro-5,6,7,8-tetrahydro-4H-thieno[2,3-d]azepin-2-yl)-2,2-dimethyl-propan-1-one]",< 100 nM
